The target in this experiment is T1, SIRT1 (Homo sapiens, UniProt Q96EB6).
T1 sequence (Q96EB6 1-747): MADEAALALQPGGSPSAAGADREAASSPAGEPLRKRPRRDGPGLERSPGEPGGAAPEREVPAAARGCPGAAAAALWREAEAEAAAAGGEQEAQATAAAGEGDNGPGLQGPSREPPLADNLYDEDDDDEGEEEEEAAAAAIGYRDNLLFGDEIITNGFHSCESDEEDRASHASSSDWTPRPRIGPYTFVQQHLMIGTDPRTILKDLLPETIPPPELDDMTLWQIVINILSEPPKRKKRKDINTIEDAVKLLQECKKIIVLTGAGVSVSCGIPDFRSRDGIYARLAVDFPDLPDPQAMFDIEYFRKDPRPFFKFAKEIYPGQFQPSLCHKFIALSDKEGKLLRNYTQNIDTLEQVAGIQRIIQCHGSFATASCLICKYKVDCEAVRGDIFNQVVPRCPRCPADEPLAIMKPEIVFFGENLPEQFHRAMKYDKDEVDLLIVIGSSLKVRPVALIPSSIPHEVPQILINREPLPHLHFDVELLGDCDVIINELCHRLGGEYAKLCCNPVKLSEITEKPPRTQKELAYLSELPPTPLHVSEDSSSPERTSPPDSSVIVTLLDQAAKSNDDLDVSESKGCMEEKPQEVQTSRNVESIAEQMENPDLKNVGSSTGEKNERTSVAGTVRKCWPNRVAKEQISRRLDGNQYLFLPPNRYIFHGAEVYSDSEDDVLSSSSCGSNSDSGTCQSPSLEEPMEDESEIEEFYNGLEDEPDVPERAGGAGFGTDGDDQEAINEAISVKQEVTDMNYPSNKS
Kind of experiment: TAMRA based mass spectrometry assay of SIRT1 activation. It is filed as biochemical. Particulars: TAMRA peptide substrate; for Emax: 25 min, percent maximum fold activation relative to control (100%), read-out: TAMRA % Fold Act; for TAMRA EC1.5 (μM): concentration giving 150% activation of SIRT1. From the text: Mass spectrometry based assays were used to identify modulators of SIRT1 activity. The TAMRA based assay utilized a peptide having 20 amino acid residues as follows: Ac-EE-K(biotin)-GQSTSSHSK(Ac)NleSTEG-K(5TMR)-EE-NH2 (SEQ ID NO: 1), wherein K(Ac) is an acetylated lysine residue and Nle is a norleucine. The peptide was labeled with the fluorophore 5TMR (excitation 540 nm/emission 580 nm) at the C-terminus. The sequence of the peptide substrate was based on p53 with several modifications. In addition, the methionine residue naturally present in the sequence was replaced with the norleucine because the methionine may be susceptible to oxidation during synthesis and purification. The Trp based assay utilized a peptide having an amino acid residues as follows: Ac—R—H—K—K(Ac)—W—NH2 (SEQ ID NO: 2).
The TAMRA based mass spectrometry assay was conducted as follows: 0.5 μM peptide substrate and 120 μM βNAD^+ was incubated with 10 nM SIRT1 for 25 minutes at 25° C. in a reaction buffer (50 mM Tris-acetate pH 8, 137 mM NaCl, 2.7 mM KCl, 1 mM MgCl2, 5 mM DTT, 0.05% BSA). The SIRT1 protein was obtained by cloning the SirT1 gene into a T7-promoter containing vector, which was then transformed and expressed in BL21(DE3) bacterial cells. Test compound was added at varying concentrations to this reaction mixture and the resulting reactions were monitored. After the 25 minute incubation with SIRT1, 10 μL of 10% formic acid was added to stop the reaction. The resulting reactions were sealed and frozen for later mass spec analysis. Determination of the amount of deacetylated substrate peptide formed (or, alternatively, the amount of O-acetyl-ADP-ribose (OAADPR) generated) by the sirtuin-mediated NAD-dependent deacetylation reaction allowed for the precise measurement of relative SIRT1 activity in the presence of varying concentrations of the test compound versus control reactions lacking the test compound.
A control for inhibition of sirtuin activity was conducted by adding 1 μL of 500 mM nicotinamide as a negative control at the start of the reaction (e.g., permits determination of maximum sirtuin inhibition). A control for activation of sirtuin activity was conducted using 10 nM of sirtuin protein, with 1 μL of DMSO in place of compound, to determine the amount of deacetylation of the substrate at a given time point within the linear range of the assay. This time point was the same as that used for test compounds and, within the linear range, the endpoint represents a change in velocity. For the above assay, SIRT1 protein was expressed and purified as follows. The SirT1 gene was cloned into a T7-promoter containing vector and transformed into BL21(DE3). The protein was expressed by induction with 1 mM IPTG as an N-terminal His-tag fusion protein at 18° C. overnight and harvested at 30,000×g. Cells were lysed with lysozyme in lysis buffer (50 mM Tris-HCl, 2 mM Tris[2-carboxyethyl]phosphine (TCEP), 10 μM ZnCl2, 200 mM NaCl) and further treated with sonication for 10 min for complete lysis. The protein was purified over a Ni-NTA column (Amersham) and fractions containing pure protein were pooled, concentrated and run over a sizing column (Sephadex S200 26/60 global). The peak containing soluble protein was collected and run on an Ion-exchange column (MonoQ). Gradient elution (200 mM-500 mM NaCl) yielded pure protein. This protein was concentrated and dialyzed against dialysis buffer (20 mM Tris-HCl, 2 mM TCEP) overnight. The protein was aliquoted and frozen at −80° C. until further use.
Sirtuin-modulating compounds of Formula (I) that activated SIRT1 were identified using the assay described above and are shown below in Table 1. The EC1.5 values represent the concentration of test compounds that result in 150% activation of SIRT1. The EC1.5 values for the activating compounds of Formula (I) are represented by A (EC1.5<1 μM), B (EC1.5 1-25 μM), C (EC1.5>25 μM). […]

`O=C(Nc1ccc2ncc(-c3ccccc3Cl)n2n1)c1ncccn1` [Compound 33]: the Emax is not below 350% and the “TAMRA EC1.5 (μM)” value is listed as “A (EC1.5<1 μM)”. As to `O=C(Nc1ccc2ncc(-c3cccc(F)c3)n2n1)c1cnccn1` [Compound 20], the Emax was less than 350% and the “TAMRA EC1.5 (μM)” value was “B (EC1.5 1-25 μM)”.

`O=C(Nc1ccccn1)c1ccc2nnc(-c3cccc(C(F)(F)F)c3)n2n1` [Compound 3]: the “TAMRA EC1.5 (μM)” value is on record as “C (EC1.5>25 μM)”. As for `O=C(Nc1ccnc(C(F)(F)F)c1)c1ccc2ncc(-c3ccccc3F)n2n1` [Compound 12], the Emax is less than 350% and the “TAMRA EC1.5 (μM)” value is “B (EC1.5 1-25 μM)”. In the case of `O=C(Nc1ccnc(C2CCOCC2)c1)c1ccc2ncc(-c3cccc(C(F)(F)F)c3)n2n1` [Compound 47], the Emax was not below 350% and the “TAMRA EC1.5 (μM)” value is given as “A (EC1.5<1 μM)”.

As for `O=C(Nc1ccnc(C(F)(F)F)c1)c1ccc2ncc(-c3cccc(F)c3)n2n1` [Compound 50], the Emax was less than 350% and the “TAMRA EC1.5 (μM)” value is recorded as “C (EC1.5>25 μM)”. On to `O=C(Nc1ccccn1)c1ccc2nnc(-c3cccc(OC(F)(F)F)c3)n2n1` [Compound 2], for which the Emax was less than 350% and the “TAMRA EC1.5 (μM)” value is “C (EC1.5>25 μM)”. Consider `O=C(Nc1ccc2ncc(-c3cccc(F)c3)n2n1)c1nccs1` [Compound 17], for which the Emax is less than 350% and the “TAMRA EC1.5 (μM)” value was “B (EC1.5 1-25 μM)”.

For the compound `O=C(Nc1ccnc(C(F)(F)F)c1)c1ccc2ncc(-c3ccccc3Cl)n2n1` [Compound 29], the Emax is less than 350% and the “TAMRA EC1.5 (μM)” value is “B (EC1.5 1-25 μM)”. The like results for `CS(=O)(=O)c1cccc(-c2nnc3ccc(C(=O)Nc4nccs4)nn23)c1` [Compound 42] were, in that order, less than 350% and “C (EC1.5>25 μM)”.

On to `O=C(Nc1ccc(F)cn1)c1ccc2ncc(-c3cccc(C(F)(F)F)c3)n2n1` [Compound 11], for which the Emax is less than 350% and the “TAMRA EC1.5 (μM)” value is “B (EC1.5 1-25 μM)”.

On to `O=C(Nc1ccc2ncc(-c3ccccc3Cl)n2n1)c1ccccn1` [Compound 41], for which the Emax is less than 350% and the “TAMRA EC1.5 (μM)” value was “C (EC1.5>25 μM)”. The matching figures for `O=C(Nc1ccc2ncc(-c3cccc(Cl)c3)n2n1)c1cnccn1` [Compound 34]: less than 350% and “A (EC1.5<1 μM)”.

`Cn1ccc(C(=O)Nc2ccc3ncc(-c4ccccc4F)n3n2)n1` [Compound 36]: the Emax was less than 350% and the “TAMRA EC1.5 (μM)” value is on record as “A (EC1.5<1 μM)”.

Regarding `O=C(Nc1ccc2ncc(-c3ccccc3Cl)n2n1)c1nccs1` [Compound 24], the Emax was less than 350% and the “TAMRA EC1.5 (μM)” value was “B (EC1.5 1-25 μM)”. As to `O=C(Nc1cccc(N2CCOCC2)n1)c1ccc2ncc(-c3cccc(Cl)c3)n2n1` [Compound 46], the Emax was less than 350% and the “TAMRA EC1.5 (μM)” value is given as “B (EC1.5 1-25 μM)”.

Turning to `Cn1ccc(C(=O)Nc2ccc3ncc(-c4ccccc4Cl)n3n2)n1` [Compound 45], the Emax is less than 350% and the “TAMRA EC1.5 (μM)” value is “C (EC1.5>25 μM)”.

With `O=C(Nc1ccc2ncc(-c3cccc(Cl)c3)n2n1)c1nccs1` [Compound 27], the Emax is less than 350% and the “TAMRA EC1.5 (μM)” value is on record as “B (EC1.5 1-25 μM)”. The matching figures for `O=C(Nc1ccc2ncc(-c3cccc(Cl)c3)n2n1)c1ccccn1` [Compound 30]: less than 350% and “B (EC1.5 1-25 μM)”.

As to `O=C(Nc1nccs1)c1ccc2nnc(-c3cccc(C(F)(F)F)c3)n2n1` [Compound 49], the Emax was less than 350% and the “TAMRA EC1.5 (μM)” value is on record as “C (EC1.5>25 μM)”. The like results for `O=C(Nc1cccc(N2CCOCC2)n1)c1ccc2ncc(-c3ccccc3F)n2n1` [Compound 32] were, in that order, less than 350% and “C (EC1.5>25 μM)”. As for `O=C(Nc1ccc2ncc(-c3ccccc3F)n2n1)c1ncccn1` [Compound 25], the Emax was less than 350% and the “TAMRA EC1.5 (μM)” value is listed as “B (EC1.5 1-25 μM)”. Regarding `O=C(Nc1ccc2ncc(-c3cccc(Cl)c3)n2n1)c1ncccn1` [Compound 37], the Emax was less than 350% and the “TAMRA EC1.5 (μM)” value is given as “B (EC1.5 1-25 μM)”. `Cn1ccc(C(=O)Nc2ccc3ncc(-c4cccc(Cl)c4)n3n2)n1` [Compound 35]: the Emax was less than 350% and the “TAMRA EC1.5 (μM)” value was “A (EC1.5<1 μM)”.

`Cn1ccc(C(=O)Nc2ccc3ncc(-c4cccc(F)c4)n3n2)n1` [Compound 43]: the Emax was less than 350% and the “TAMRA EC1.5 (μM)” value is “C (EC1.5>25 μM)”.

Consider `O=C(Nc1cccc(C(F)(F)F)n1)c1ccc2ncc(-c3ccccc3F)n2n1` [Compound 9], for which the Emax is less than 350% and the “TAMRA EC1.5 (μM)” value is reported as “B (EC1.5 1-25 μM)”. For the compound `O=C(Nc1ccc2ncc(-c3ccccc3F)n2n1)c1cnccn1` [Compound 13], the Emax was less than 350% and the “TAMRA EC1.5 (μM)” value is recorded as “C (EC1.5>25 μM)”. The matching figures for `O=C(Nc1ccc2ncc(-c3cccc(C(F)(F)F)c3)n2n1)c1ccccn1` [Compound 31]: less than 350% and “B (EC1.5 1-25 μM)”. The matching figures for `O=C(Nc1ccc2ncc(-c3cccc(F)c3)n2n1)c1ccccn1` [Compound 28]: less than 350% and “B (EC1.5 1-25 μM)”. Take `O=C(Nc1cccc(C(F)(F)F)n1)c1ccc2nnc(-c3cccc(F)c3)n2n1` [Compound 7]: the Emax is less than 350%.

On to `Cn1ccc(C(=O)Nc2ccc3ncc(-c4cccc(C(F)(F)F)c4)n3n2)n1` [Compound 40], for which the Emax is less than 350% and the “TAMRA EC1.5 (μM)” value was “C (EC1.5>25 μM)”.

Source of the values: patent US20140249147A1, “Substituted Bicyclic Aza-Heterocycles and Analogues as Sirtuin Modulators” (GlaxoSmithKline, LLC, priority 2011, published 2014).
